Patent publication US11390604B2 (Hoffmann-La Roche Inc., priority 2019, dated 2022)
Structures can show the parent of a compound that is named as a salt. Where two headings read alike, the source gives them in different places.

Tested on: Acinetobacter baumannii ATCC 17961
Assay: Antimicrobial susceptibility testing: 90% growth inhibitory concentration (IC90) determination
Assay type: cell-based
Summary of the method: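 Broth microdilution in Iso-Sensitest medium, twofold series (e.g. 50 to 0.097 μM final), ~5×10^5 CFU/ml inoculum, 35±2 °C. OD600 read every 20 min over 16 h. IC90 derived from growth inhibition during logarithmic phase.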

[1] = ATCC17961, Acinetobacter baumannii ATCC 17961, Iso-Sensitest broth, read-out: ATCC 17961 IC90

Row | SMILES | IC90 [1] [nM] | IC90 (Acinetobacter baumannii, ATCC17961, read-out: ATCC 17961 IC90, Acinetobacter baumannii ATCC 17961, Iso-Sensitest broth) [nM]
1 | Cc1nc(Cn2cc(-c3cnc(C(=O)Nc4ccc(C(=O)N5CCN(C(=O)C6CCNCC6)CC5)c(Cl)c4)n3C)c(C(F)(F)F)n2)no1 [Example 106, N-[3-chloro-4-[4-(piperidine-4-carbonyl)piperazine-1-carbonyl]phenyl]-1-methyl-5-[1-[(5-methyl-1,2,4-oxadiazol-3-yl)methyl]-3-(trifluoromethyl)pyrazol-4-yl]imidazole-2-carboxamide;hydrochloride] | 848 | –
2 | Cn1c(-c2cn(CC3(C)CSC3)nc2C(F)(F)F)cnc1C(=O)Nc1ccc(C(=O)N2CCN(C(=O)C3CCNCC3)CC2)c(Cl)c1 [Example 107, N-[3-chloro-4-[4-(piperidine-4-carbonyl)piperazine-1-carbonyl]phenyl]-1-methyl-5-[1-[(3-methylthietan-3-yl)methyl]-3-(trifluoromethyl)pyrazol-4-yl]imidazole-2-carboxamide;hydrochloride] | 444 | –
3 | Cn1c(-c2cn(C3CC4(CC4)C3)nc2C(F)(F)F)cnc1C(=O)Nc1ccc(C(=O)N2CCN(C(=O)N[C@H]3C[C@@H](N)C3)CC2)c(Cl)c1 [Example 210, rac-N-((1s,3s)-3-aminocyclobutyl)-4-(2-chloro-4-(1-methyl-5-(1-(spiro[2.3]hexan-5-yl)-3-(trifluoromethyl)-1H-pyrazol-4-yl)-1H-imidazole-2-carboxamido)benzoyl)piperazine-1-carboxamide hydrochloride] | – | 231
4 | Cc1cc(NC(=O)c2ncc(-c3cn(CC#N)nc3C(F)(F)F)n2C)ccc1C(=O)N1CCN(C(=O)C2CCNCC2)CC1 [Example 30, 5-(1-(cyanomethyl)-3-(trifluoromethyl)-1H-pyrazol-4-yl)-1-methyl-N-(3-methyl-4-(4-(piperidine-4-carbonyl)piperazine-1-carbonyl)phenyl)-1H-imidazole-2-carboxamide] | 867 | –
5 | Cn1c(-c2cn(Cc3cccnc3)nc2C(F)(F)F)cnc1C(=O)Nc1ccc(C(=O)N2CCNCC2)c(Cl)c1 [Example 67, N-[3-chloro-4-(piperazine-1-carbonyl)phenyl]-1-methyl-5-[1-(pyridin-3-ylmethyl)-3-(trifluoromethyl)pyrazol-4-yl]imidazole-2-carboxamide;hydrochloride] | 1440 | –
6 | Cn1c(-c2cn(CC#N)nc2C(F)(F)F)cnc1C(=O)Nc1ccc(C(=O)N2CCN(C(=O)C3(O)CCNCC3)CC2)c(Cl)c1 [Example 60, N-[3-Chloro-4-[4-(4-hydroxypiperidine-4-carbonyl)piperazine-1-carbonyl]phenyl]-5-[1-(cyanomethyl)-3-(trifluoromethyl)pyrazol-4-yl]-1-methyl-imidazole-2-carboxamide; Formic Acid] | 468 | –
7 | Cc1cc(NC(=O)c2ncc(-c3c[nH]nc3C(F)(F)F)n2C)ccc1C(=O)NCCCCCN [Example 50, N-(4-((5-aminopentyl)carbamoyl)-3-methylphenyl)-1-methyl-5-(3-(trifluoromethyl)-1H-pyrazol-4-yl)-1H-imidazole-2-carboxamide hydrochloride] | 4680 | –
8 | CN(C)CC(=O)N1CCN(S(=O)(=O)c2ccc(NC(=O)c3ncc(-c4c[nH]nc4C(F)(F)F)n3C)cc2Cl)CC1 [Example 58, N-(3-Chloro-4-((4-(dimethylglycyl)piperazin-1-yl)sulfonyl)phenyl)-1-methyl-5-(3-(trifluoromethyl)-1H-pyrazol-4-yl)-1H-imidazole-2-carboxamide] | 952 | –
9 | Cn1c(-c2cn(Cc3cccnc3)nc2C(F)(F)F)cnc1C(=O)Nc1ccc(C(=O)N2CCN(C(=O)[C@H]3CCNC3)CC2)c(Cl)c1 [Example 70, N-[3-chloro-4-[4-[(3S)-pyrrolidine-3-carbonyl]piperazine-1-carbonyl]phenyl]-1-methyl-5-[1-(pyridin-3-ylmethyl)-3-(trifluoromethyl)pyrazol-4-yl]imidazole-2-carboxamide] | 497 | –

Further lines, with some results ahead:

Row | IC90 [1] [nM] | SMILES | IC90 (Acinetobacter baumannii, ATCC17961, read-out: ATCC 17961 IC90, Acinetobacter baumannii ATCC 17961, Iso-Sensitest broth) [nM]
10 | 274 | Cn1c(-c2cn(CC3CC3)nc2C(F)(F)F)cnc1C(=O)Nc1ccc(C(=O)N2CCN(C(=O)C3CCNCC3)CC2)c(Cl)c1 [Example 112, N-[3-chloro-4-[4-(piperidine-4-carbonyl)piperazine-1-carbonyl]phenyl]-5-[1-(cyclopropylmethyl)-3-(trifluoromethyl)pyrazol-4-yl]-1-methylimidazole-2-carboxamide;hydrochloride] | –
11 | 681 | CCc1cc(NC(=O)c2ncc(-c3cn(CC#N)nc3C(F)(F)F)n2C)ccc1C(=O)N1CCN(C(=O)C2CCN(C)CC2)CC1 [Example 127, 5-[1-(cyanomethyl)-3-(trifluoromethyl)pyrazol-4-yl]-N-[3-ethyl-4-[4-(1-methylpiperidine-4-carbonyl)piperazine-1-carbonyl]phenyl]-1-methylimidazole-2-carboxamide;formic acid] | –
12 | 100 | Cn1c(-c2cn(CC3CC3(F)F)nc2C(F)(F)F)cnc1C(=O)Nc1ccc(C(=O)N[C@H]2[C@@H]3CN(C(=O)N[C@@H]4CNC[C@H]4O)C[C@@H]32)c(Cl)c1 (mixture of isomers) [Example 385, rac-(1R,5S,6s)-6-(2-chloro-4-(5-(1-((2,2-difluorocyclopropyl)methyl)-3-(trifluoromethyl)-1H-pyrazol-4-yl)-1-methyl-1H-imidazole-2-carboxamido)benzamido)-N-((3S,4S)-4-hydroxypyrrolidin-3-yl)-3-azabicyclo[3.1.0]hexane-3-carboxamide formate] | –
13 | 386 | Cn1c(-c2cn(C3CC3)nc2C(F)(F)F)cnc1C(=O)Nc1ccc(C(=O)N2CCN(C(=O)[C@H]3C[C@H](O)CN3)CC2)c(Cl)c1 [Example 313, N-(3-chloro-4-(4-((2R,4S)-4-hydroxypyrrolidine-2-carbonyl)piperazine-1-carbonyl)phenyl)-5-(1-cyclopropyl-3-(trifluoromethyl)-1H-pyrazol-4-yl)-1-methyl-1H-imidazole-2-carboxamide hydrochloride] | –
14 | 293 | Cn1c(-c2cn(C3CC3)nc2C(F)(F)F)cnc1C(=O)Nc1ccc(C(=O)N2CCN(C(=O)C[C@H]3CCNC3)CC2)c(Cl)c1 [Example 246, (R)-N-(3-chloro-4-(4-(2-(pyrrolidin-3-yl)acetyl)piperazine-1-carbonyl)phenyl)-5-(1-cyclopropyl-3-(trifluoromethyl)-1H-pyrazol-4-yl)-1-methyl-1H-imidazole-2-carboxamide hydrochloride] | –
15 | 297 | Cn1c(-c2cn(C3CC3(F)F)nc2C(F)(F)F)cnc1C(=O)Nc1ccc(C(=O)NC2[C@H]3CN(C(=O)NC(CN)CCl)C[C@@H]23)c(Cl)c1 (stereo partly drawn) [Example 248, cis-N-(1-amino-3-chloropropan-2-yl)-6-[[2-chloro-4-[[5-[1-(2,2-difluorocyclopropyl)-3-(trifluoromethyl)pyrazol-4-yl]-1-methylimidazole-2-carbonyl]amino]benzoyl]amino]-3-azabicyclo[3.1.0]hexane-3-carboxamide, formate salt] | –
16 | 245 | CCc1cc(NC(=O)c2ncc(-c3cn(CC(F)F)nc3C(F)(F)F)n2C)ccc1C(=O)NCCCCCNCC(=O)OC(C)(C)C [Example 219, tert-butyl (5-(4-(5-(1-(2,2-difluoroethyl)-3-(trifluoromethyl)-1H-pyrazol-4-yl)-1-methyl-1H-imidazole-2-carboxamido)-2-ethylbenzamido)pentyl)glycinate] | –
17 | 373 | Cn1c(-c2cn(CC(F)(F)F)nc2C(F)(F)F)cnc1C(=O)Nc1ccc(C(=O)N2CCN(C(=O)N[C@H]3C[C@@H](N)C3)CC2)c(Cl)c1 [Example 305, rac-N-((1s,3s)-3-aminocyclobutyl)-4-(2-chloro-4-(1-methyl-5-(1-(2,2,2-trifluoroethyl)-3-(trifluoromethyl)-1H-pyrazol-4-yl)-1H-imidazole-2-carboxamido)benzoyl)piperazine-1-carboxamide hydrochloride] | –
18 | 345 | CO[C@H]1CNC[C@@H]1NC(=O)c1ccc(NC(=O)c2ncc(-c3cn(C4CC4(F)F)nc3C(F)(F)F)n2C)cc1Cl (mixture of isomers) [Example 280, N-(3-chloro-4-((trans-4-methoxypyrrolidin-3-yl)carbamoyl)phenyl)-5-(1-(2,2-difluorocyclopropyl)-3-(trifluoromethyl)-1H-pyrazol-4-yl)-1-methyl-1H-imidazole-2-carboxamide formate] | –
19 | 367 | Cn1c(-c2cn(C3CC3(F)F)nc2C(F)(F)F)cnc1C(=O)Nc1ccc(C(=O)N2CC3C(C2)C3NC(=O)N[C@H]2CNC[C@@H]2O)c(Cl)c1 (mixture of isomers) [Example 300, rac-N-(3-chloro-4-(6-(3-((3R,4R)-4-hydroxypyrrolidin-3-yl)ureido)-3-azabicyclo[3.1.0]hexane-3-carbonyl)phenyl)-5-(1-(2,2-difluorocyclopropyl)-3-(trifluoromethyl)-1H-pyrazol-4-yl)-1-methyl-1H-imidazole-2-carboxamide formate] | –
20 | 426 | Cn1c(-c2cn(C3CC3(F)F)nc2C(F)(F)F)cnc1C(=O)Nc1ccc(C(=O)NC2CCN(C(=O)N[C@@H]3CNC[C@H]3O)CC2)c(Cl)c1 (relative stereo) [Example 337, 4-(2-chloro-4-(5-(1-(2,2-difluorocyclopropyl)-3-(trifluoromethyl)-1H-pyrazol-4-yl)-1-methyl-1H-imidazole-2-carboxamido)benzamido)-N-(trans-4-hydroxypyrrolidin-3-yl)piperidine-1-carboxamide] | –
21 | 955 | CCc1cc(NC(=O)c2ncc(-c3cn(CC(F)F)nc3C(F)(F)F)n2C)ccc1C(=O)N1CCN(C(=O)C2CCNCC2)CC1 [Example 154, 5-[1-(2,2-difluoroethyl)-3-(trifluoromethyl)pyrazol-4-yl]-N-[3-ethyl-4-[4-(piperidine-4-carbonyl)piperazine-1-carbonyl]phenyl]-1-methylimidazole-2-carboxamide;formic acid] | –
22 | 216 | Cn1c(-c2cn(CC3CCC3)nc2C(F)(F)F)cnc1C(=O)Nc1ccc(C(=O)N2CCN(C(=O)CN)CC2)c(Cl)c1 [Example 202, N-(3-chloro-4-(4-glycylpiperazine-1-carbonyl)phenyl)-5-(1-(cyclobutylmethyl)-3-(trifluoromethyl)-1H-pyrazol-4-yl)-1-methyl-1H-imidazole-2-carboxamide hydrochloride] | –
